Measured values from patent US20190209506A1, “METHODS OF REDUCING OR PREVENTING OXIDATION OF LDL OR LIPID MEMBRANES IN A SUBJECT IN NEED THEREOF” (Amarin Pharmaceuticals Ireland Limited, priority 2018, published 2019).

Tests used:
[1] = Lipid hydroperoxide (LOOH) formation in cholesterol-enriched model membranes under autoxidation (Example 3); assay type: biochemical; settings: EPA:lipids 1:30; C/P 0.6:1; autoxidation 37° C., 72 hours
Description: Levels of lipid hydroperoxides were also measured in cholesterol-enriched membrane prepared in the absence of EPA as a control. […] CHOD-iodide color reagent (stock) was prepared according to a procedure modified from El-Saadani et […], Goher […], Jurgens G. A spectrophotometric assay for lipid peroxides in serum lipoproteins using commercially available reagent. (J. Lipid. […] Membrane samples consisting of DLPC±cholesterol were prepared as follows. Component lipids (in chloroform) were transferred to 13×100 mm test tubes and shell-dried under a steady stream of nitrogen gas while vortex mixing. The lipid was co-dried with EPA. Residual solvent was removed by drying for a minimum of 3 h under vacuum. After desiccation, each membrane sample was resuspended in diffraction buffer (0.5 mM HEPES, 154 mM NaCl, pH 7.3) to yield a final phospholipid concentration of 1.0 mg/mL. Multilamellar vesicles (MLV) were formed by vortex mixing for 3 minutes at ambient temperature. […] Absorbances were measured against a CHOD blank at 365 nm using a Beckman DU-640 spectrophotometer. The CHOD colorimetric assay is based on the oxidation of iodide (I^-) by lipid hydroperoxides (LOOH) and proceeds according to the following reaction scheme: The quantity of triiodide anion (I3^-) liberated in this reaction is directly proportional to the amount of lipid hydroperoxides present in the membrane sample.

[2] = system: HUVECs; test: NO and ONOO^− release from HUVECs exposed to oxLDL, nanosensors (Example 8); assay type: cell-based, human; settings: ECs exposed to oxLDL; compared to vehicle
Description: Human umbilical vein endothelial cells (HUVECs) were isolated into primary cultures from female donors by Clonetics (San Diego, Calif.) and purchased as proliferating cells. All cell culture donors were healthy, with no pregnancy or prenatal complications. […] The confluent cells (4 to 5×10^5 cells/35 mm dish) were placed with minimum essential medium containing 3 mM L-arginine and 0.1 mM BH4 [(6R)-5,6,7,8-tetrahydrobiopterin]. Before experimental use, the cells (from second or third passage) were rinsed twice with Tyrode-HEPES buffer with 1.8 mM CaCl2.
Plasma was immediately separated by centrifugation at 3,000 g for 10 minutes at 4° C.
Tris-NaCl buffer was added to the dialyzed LDL to adjust the protein concentration to 30 mg/mL. A 1-mL aliquot of 20 μM CuSO4 was added to 1 mL of dialyzed normal LDL.
Concurrent measurements of NO and ONOO^− were performed with tandem electrochemical nanosensors combined into one working unit with a total diameter of 200-400 nm. Their design was based on previously developed and chemically modified carbon-fiber technology. […]
The amperometric method (with a response time of 0.1 ms) provides a quantitative signal (current) that is directly proportional to changes (from basal levels) in NO or ONOO^− concentration. […] Basal NO or ONOO^− levels were measured by differential pulse voltammetry in separate experiments. […]

[3] = system: human sdLDL; test: Copper-induced sdLDL oxidation with fatty acids, TBARS/MDA (Example 14); assay type: biochemical; settings: 1.0 μM
Description: Venous blood was collected from healthy volunteers into vacutainer tubes. Plasma was separated by centrifugation at 3000 g for 25 min at 4° C. and adjusted to a density of 1.020 g/mL with KBr. sdLDL was isolated from the plasma of healthy volunteers by iodixanol density gradient ultracentrifugation and adjusted to a final apolipoprotein concentration of 2 mg/mL. An aliquot of sdLDL (50 μL) was incubated with either 10 μL vehicle (ethanol) or 10 μL FA (EPA, ETE, AA, EA, DHA, DPA, ALA, LA or SA) treatment stock solution (100 μM) for 30 min at 37° C. Oxidation was initiated with addition of initiator CuSO4 (10.0 μM). At certain time points (0, 40, 60, and 120 minutes), […] were removed from each subfraction and combined with 1.0 mL thiobarbituric acid (0.5%), 10 μL trichloroacetic acid (10%), 10 μL butylated hydroxytoluene (BHT; 35 mM in ethanol), and 10 μL ethylenediaminetetraacetic acid (EDTA; 5 mM). Sample aliquots were incubated at 100° C. for 30 min and then assayed for the formation of thiobarbituric acid reactive substances (TBARS), which have a molar absorptivity (ε) value of 1.56×105 M^−1 cm^−1 at 532 nm and are largely derived from the reaction of thiobarbituric acid with MDA, a reactive aldehyde produced by sdLDL oxidation. Sample TBARS concentrations were determined spectrophotometrically by measuring sample absorbances against a standard curve derived from the hydrolysis of 1,1,3,3-tetramethoxypropane.

CC/C=C\C/C=C\C/C=C\C/C=C\C/C=C\CCCC(=O)O [EPA, cis-5,8,11,14,17-eicosapentaenoic acid]
LOOH levels [1]: 728 ± 30 µM | reduction of LOOH levels compared to untreated controls [1]: greater than 90% | increase in NO release [2]: 45% | inhibition of lipoprotein oxidation versus vehicle ([3]; 40 minutes): 70% | inhibition of oxidation compared to vehicle ([3]; 60 minutes): 44% | MDA Equivalents (Mean ± SD) ([3]; time point 0 min): 0.30 ± 0.04 µM | MDA Equivalents (Mean ± SD) ([3]; time point 40 min): 3.14 ± 0.19 µM | MDA Equivalents (Mean ± SD) ([3]; time point 60 min): 6.42 ± 0.24 µM | MDA Equivalents (Mean ± SD) ([3]; time point 120 min): 12.46 ± 0.75 µM
